We go through eight molecules from DBAASP.

Converted amounts (≈) assume the structure as drawn.

Holding throughout (test): ≥ marks a high value that may be exact or a test limit, other limits are often not marked, values filed in µg/mL are converted to µM
Assay [1] concerns Shigella flexneri MTCC 1457.
Assay [2] has as its system Vibrio cholerae MTCC 3904.
For assay [3], the system named is Acinetobacter baumannii MTCC 9829.
Assay [4] has as its system Staphylococcus aureus MTCC 3160.
For assay [5], the system named is Salmonella enterica MTCC 9844.
Assay [6] relates to Enterococcus faecalis MTCC 439.
For assay [7], the system named is Escherichia coli K12 MG1655.
The test system of assay [8] is Citrobacter freundii MTCC 1658.
For assay [9], the system named is Alkalihalobacillus alcalophilus MTCC 860.
In assay [10] the test system is Salmonella enterica subsp. enterica serovar Typhimurium ATCC 14028.
Assay [11] has as its system Pseudomonas aeruginosa MTCC 3542.
In assay [12] the test system is Alcaligenes faecalis MTCC 1937.
Assay [13] has as its system Stenotrophomonas maltophilia MTCC 1890.
In assay [14] the test system is Klebsiella pneumoniae MTCC 7407.
Assay [15] deals with Pluralibacter gergoviae MTCC 3826.
In assay [16] the test system is Proteus vulgaris MTCC 1771.
Assay [17] concerns Citrobacter koseri MTCC 1657.
Assay [18] has as its system Proteus mirabilis MTCC 3158.
Assay [19] relates to Corynebacterium glutamicum MTCC 2679.
The test system of assay [20] is Shigella boydii MTCC 11947.
Assay [21] relates to Klebsiella oxytoca MTCC 2275.
The subject of assay [22] is Staphylococcus haemolyticus MTCC 3383.
Assay [23] concerns Haemophilus influenzae MTCC 621.
The subject of assay [24] is Klebsiella aerogenes MTCC 111.
Assay [25] concerns Bordetella bronchiseptica MTCC 6837.
Assay [26] concerns Pseudomonas aeruginosa Ps4.
Assay [27] concerns Escherichia coli ATCC 25922.
The test system of assay [28] is Candida albicans.
Assay [29] deals with Escherichia coli MG1655.
In assay [30] the test system is Pseudomonas aeruginosa PAO1.
Assay [31] concerns Staphylococcus aureus ATCC 25923.

As to `CC[C@H](C)[C@H](NC(=O)[C@@H](N)CCC(=O)O)C(=O)N[C@@H](CC(C)C)C(=O)N[C@@H](CO)C(=O)N[C@@H](CCCCN)C(=O)N[C@@H](C)C(=O)N[C@@H](CC(C)C)C(=O)N[C@@H](CO)C(=O)N[C@@H](C)C(=O)N[C@@H](CC(C)C)C(=O)N[C@@H](CO)C(=O)N1CCC[C@H]1C(=O)N[C@@H](CC(C)C)C(=O)N[C@@H](C)C(=O)N[C@@H](CC(N)=O)C(=O)O` [EILSKALSALSPLAN], the MIC in [1], in assay [2], in [3], in assay [4], in [5] and in assay [6] was not below 83.8 µM each time. Besides, the MIC in assay [7] is not below 83.8 µM; in [8], not below 83.8 µM; in [9] it was not below 83.8 µM; in assay [10] it was more than 83.8 µM; in assay [11] it was not below 83.8 µM; in assay [12], not below 83.8 µM. For the same molecule, the MIC in [13], in assay [14], in assay [15], in [16], in assay [17] and in [18] was not below 83.8 µM throughout. Besides, the MIC in [19], in assay [20], in assay [21], in assay [22], in [23] and in assay [24] was not below 83.8 µM throughout. The MIC in [25] was not below 83.8 µM.
`CC[C@H](C)[C@H](NC(=O)[C@H](CCCCN)NC(=O)[C@H](CCCN=C(N)N)NC(=O)[C@H](CCC(N)=O)NC(=O)[C@H](Cc1c[nH]c2ccccc12)NC(=O)[C@@H](N)Cc1ccccc1)C(=O)N[C@@H](CCCN=C(N)N)C(=O)N[C@@H](CCCCN)C(=O)N[C@H](C(=O)N[C@@H](CCCCN)C(=O)N[C@@H](CCCCN)C(N)=O)C(C)C` [FWQRKIRKVKK]: the MIC in assay [26] was not below 165 µM.
With `CC[C@H](C)[C@H](NC(=O)[C@H](CCCN=C(N)N)NC(=O)[C@@H](NC(=O)[C@H](CC(N)=O)NC(=O)[C@H](CCCN=C(N)N)NC(=O)[C@H](CCC(N)=O)NC(=O)[C@H](Cc1c[nH]c2ccccc12)NC(=O)[C@@H](N)Cc1ccccc1)[C@@H](C)CC)C(=O)N[C@@H](CCCN=C(N)N)C(=O)N[C@@H](CCCN=C(N)N)C(N)=O` [FWQRNIRIRR], the MIC is 86.5 µM (≈ 125 µg/mL) in assay [27] and not below 173 µM in assay [26].
As for `CC[C@H](C)[C@H](NC(=O)[C@@H]1CCCN1C(=O)[C@H](CCCN=C(N)N)NC(=O)[C@H](CCC(N)=O)NC(=O)[C@H](Cc1c[nH]c2ccccc12)NC(=O)[C@@H](N)Cc1ccccc1)C(=O)N[C@@H](CCCN=C(N)N)C(=O)N[C@@H](CCCCN)C(=O)N[C@H](C(=O)N[C@@H](CCCN=C(N)N)C(N)=O)C(C)C` [FWQRPIRKVR], the MIC in [26] is not below 180 µM.
Regarding `CSCC[C@H](NC(=O)[C@@H](NC(=O)[C@H](CCCCN)NC(=O)[C@H](C)NC(=O)[C@H](CC(C)C)NC(=O)CN)C(C)C)C(=O)N[C@@H](CCCN=C(N)N)C(=O)N[C@@H](CCCCN)C(=O)N[C@H](C(=O)N[C@@H](CC(C)C)C(=O)NCC(=O)N[C@@H](Cc1ccc(O)cc1)C(=O)N[C@@H](CC(C)C)C(=O)N[C@@H](CCCN=C(N)N)C(=O)N[C@@H](CC(N)=O)C(=O)N[C@H](C(=O)N[C@@H](Cc1ccc(O)cc1)C(=O)N[C@@H](CCCCN)C(N)=O)C(C)C)C(C)C` [GLAKVMRKVLGYLRNVYK], the MIC in [28] worked out at 22.6 µM (≈ 47.7 µg/mL); in assay [29] it was 2.83 µM (≈ 5.96 µg/mL); in [30], 8 µM (≈ 16.9 µg/mL); in assay [31], 5.66 µM (≈ 11.9 µg/mL).
Turning to `CC[C@H](C)[C@H](NC(=O)CNC(=O)[C@H](CCCCN)NC(=O)[C@H](C)NC(=O)[C@H](C)NC(=O)[C@H](CCCCN)NC(=O)[C@H](Cc1cnc[nH]1)NC(=O)[C@@H](NC(=O)[C@H](C)NC(=O)[C@H](CCCCN)NC(=O)[C@H](Cc1c[nH]c2ccccc12)NC(=O)CN)[C@@H](C)CC)C(=O)N[C@@H](Cc1cnc[nH]1)C(=O)N[C@H](C(=O)N[C@@H](Cc1ccc(O)cc1)C(=O)N[C@H](C(=O)N[C@@H](CC(N)=O)C(=O)O)C(C)C)[C@@H](C)O` [GWKAIHKAAKGIHTYVN], the MIC in assay [1], in assay [2], in [3], in [4], in assay [5] and in [6] was not below 67.6 µM each time. The MIC in [7] is not below 67.6 µM; in assay [8], not below 67.6 µM; in assay [9] it was not below 67.6 µM; in assay [10], more than 67.6 µM; in assay [11], not below 67.6 µM; in assay [12], not below 67.6 µM. Also, the MIC in assay [13], in assay [14], in assay [15], in assay [16], in assay [17] and in assay [18] was not below 67.6 µM each time. The MIC in assay [19] is not below 33.8 µM; in assay [20] it was not below 67.6 µM; in [21], not below 67.6 µM; in [22], not below 67.6 µM; in assay [23], not below 33.8 µM; in assay [24], not below 67.6 µM. The same molecule registered an MIC in [25] not below 67.6 µM.
With `CC[C@H](C)[C@H](NC(=O)[C@@H](NC(=O)[C@H](C)NC(=O)[C@H](Cc1cnc[nH]1)NC(=O)[C@H](CC(C)C)NC(=O)[C@H](CCCN=C(N)N)NC(=O)[C@H](C)NC(=O)[C@H](Cc1ccc(O)cc1)NC(=O)[C@@H](NC(=O)[C@@H](N)CCCCN)C(C)C)C(C)C)C(=O)N[C@@H](CCCCN)C(=O)N[C@@H](CCCN=C(N)N)C(=O)N[C@@H](CC(C)C)C(=O)N[C@@H](Cc1cnc[nH]1)C(=O)N[C@@H](CCCN=C(N)N)C(=O)N[C@@H](CCCN=C(N)N)C(=O)N[C@@H](CC(C)C)C(=O)N[C@@H](Cc1cnc[nH]1)C(=O)O` [KVYARLHAVIKRLHRRLH], the MIC in [1] was 1.76 µM (≈ 4 µg/mL); in [2], not below 56.5 µM; in [3], 14.1 µM (≈ 32 µg/mL); in assay [4] it was not below 56.5 µM; in assay [5] it was 14.1 µM (≈ 32 µg/mL); in assay [6] it was not below 56.5 µM. Further, the MIC in assay [7] is 7.06 µM (≈ 16 µg/mL); in [8] it was 14.1 µM (≈ 32 µg/mL); in [9], 14.1 µM (≈ 32 µg/mL); in assay [10], 14.1 µM (≈ 32 µg/mL); in assay [11], not below 56.5 µM; in assay [12], not below 56.5 µM. For the same molecule, the MIC in assay [13] was not below 56.5 µM; in assay [14], not below 56.5 µM; in assay [15] it was not below 56.5 µM; in assay [16] it was not below 56.5 µM; in [17] it was 14.1 µM (≈ 32 µg/mL); in [18], not below 56.5 µM. Moreover, the MIC in [19] is 0.882 µM (≈ 2 µg/mL); in assay [20] it was 3.53 µM (≈ 8 µg/mL); in assay [21], 3.53 µM (≈ 8 µg/mL); in assay [22], 1.76 µM (≈ 4 µg/mL); in [23] it was 1.76 µM (≈ 4 µg/mL); in [24], not below 56.5 µM. The same molecule showed an MIC in assay [25] of 1.76 µM (≈ 4 µg/mL).
In [26], `CC[C@H](C)[C@H](NC(=O)[C@H](CC(N)=O)NC(=O)[C@H](CCCN=C(N)N)NC(=O)[C@H](CCC(N)=O)NC(=O)[C@H](Cc1c[nH]c2ccccc12)NC(=O)[C@@H](N)CCCCN)C(=O)N[C@@H](CCCN=C(N)N)C(=O)N[C@@H](CCCCN)C(=O)N[C@H](C(=O)N[C@@H](CCCN=C(N)N)C(=O)N[C@@H](CCCN=C(N)N)C(N)=O)C(C)C` [KWQRNIRKVRR] had an MIC not below 162 µM.
